Values after ≈ are worked out from the molar mass of the structure shown.
Experiments:
[1] = test system: E. coli DH10B pBC SK(+) empty; test: MIC susceptibility testing, empty vector control; settings: Escherichia coli
[2] = biological target: T1, purified PenA1 β-lactamase (Burkholderia multivorans, UniProt A0A0H3KN52); test: Acylation rate k2/K; assay type: biochemical; settings: acylation rate (kinact/KI or k2/K), nitrocefin 100 μM reporter
T1 sequence (A0A0H3KN52 28-302): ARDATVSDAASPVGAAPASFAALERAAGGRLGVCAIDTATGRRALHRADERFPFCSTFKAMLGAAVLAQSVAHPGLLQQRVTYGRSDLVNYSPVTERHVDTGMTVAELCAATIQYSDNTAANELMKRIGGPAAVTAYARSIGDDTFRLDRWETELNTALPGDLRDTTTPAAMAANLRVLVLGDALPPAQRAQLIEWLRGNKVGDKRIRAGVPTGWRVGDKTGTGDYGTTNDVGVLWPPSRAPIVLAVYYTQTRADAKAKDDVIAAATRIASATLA

[3] = biological target: T1, purified PenA1 β-lactamase; test: Steady-state inhibition kinetics, Ki-app, purified enzyme; assay type: biochemical; settings: read-out: Km nitrocefin, used for correction of Ki-app

| Compound | k2/K [2] | other results |
| --- | --- | --- |
| CCN1CCN(C(=O)N[C@@H](C(=O)N[C@@H]2C(=O)N3[C@@H]2SC(C)(C)[C@@H]3C(=O)O)c2ccccc2)C(=O)C1=O [Piperacillin] |  | MIC [1]: 2 µg/mL (≈ 3.86 µM) |
| O=C(O)[C@H]1/C(=C/CO)O[C@@H]2CC(=O)N21 [clavulanic acid] | 340 to 2e+06 M⁻¹ s⁻¹ |  |
| Cn1cc[n+](C[C@@]2(C)[C@H](C(=O)[O-])N3C(=O)C[C@H]3S2(=O)=O)n1 [enmetazobactam] | 6.3 ± 2.0 × 10^5 M^−1 s^−1 |  |
| O=C(Cc1cccs1)N[C@@H]1C(=O)N2C(C(=O)O)=C(/C=C/c3ccc([N+](=O)[O-])cc3[N+](=O)[O-])CS[C@H]12 [nitrocefin] |  | Km [3]: 147 µM |

Reference: publication PMC8324038 (ACS infectious diseases, 2021)
